The values below come from ChEMBL document CHEMBL4339196, “1H-Pyrrolo[3,2-b]pyridine GluN2B-Selective Negative Allosteric Modulators” (ACS Med Chem Lett, 2019).

A short description of data set [1]: Solubility of the compound at pH 7. The class given is physicochemical. Conditions: buffer.
A short description of data set [2]: Solubility of the compound at pH 2. In kind it is physicochemical. The settings on record: buffer.

Each structure is given as a SMILES string.

Turning to `O=C(Cn1c(=O)[nH]c2ncc(-c3cccc(C(F)(F)F)c3)cc21)NC1CC1`, the solubility in data set [1] and in data set [2] was under 4 µM each time.
